Reference: BindingDB's records for doi:10.1021/jm060193m (Universit&#224, 2006)

Tests used:
Integrase [1] = biological target: T1, Integrase (Human immunodeficiency virus 1, UniProt Q7ZJM1); test: Inhibition of HIV1 integrase strand transfer activity
Integrase [2] = biological target: T1, Integrase; test: Inhibition of HIV1 integrase 3' processing activity

T1 sequence (Q7ZJM1 whole entry): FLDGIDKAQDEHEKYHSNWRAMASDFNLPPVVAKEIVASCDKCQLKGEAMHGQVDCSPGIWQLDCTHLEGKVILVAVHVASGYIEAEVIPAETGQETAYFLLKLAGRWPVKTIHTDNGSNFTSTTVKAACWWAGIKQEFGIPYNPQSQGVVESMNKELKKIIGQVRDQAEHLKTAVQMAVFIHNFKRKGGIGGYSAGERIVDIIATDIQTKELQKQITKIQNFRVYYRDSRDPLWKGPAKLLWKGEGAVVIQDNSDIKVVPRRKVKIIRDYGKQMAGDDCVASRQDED

COC(=O)C(=O)CC(=O)c1ccccc1
IC50 (Integrase [1]): > 333 µM | IC50 (Integrase [2]): > 333 µM
